Measured values: PubChem BioAssay AID588503 (Sanford-Burnham Center for Chemical Genomics, 2011)
“And” between values parts separate entries of the source, which are not always exact repeats. Equal entries are not always repeated. The source made the active and inactive calls.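 How the source made its calls: active means compounds whose mean half-maximal effective concentration EC50 is at most 20 µM; inactive means the rest.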

target: G-protein coupled receptor 35 (Homo sapiens) (UniProt Q9HC97); experiment: GPR35-driven beta-arrestin-GFP translocation by analogs – imaging, U2OS, selectivity assay for NTR1 agonist project, SAR follow-up (AID 588503)
Sequence (Q9HC97 whole entry, looked up): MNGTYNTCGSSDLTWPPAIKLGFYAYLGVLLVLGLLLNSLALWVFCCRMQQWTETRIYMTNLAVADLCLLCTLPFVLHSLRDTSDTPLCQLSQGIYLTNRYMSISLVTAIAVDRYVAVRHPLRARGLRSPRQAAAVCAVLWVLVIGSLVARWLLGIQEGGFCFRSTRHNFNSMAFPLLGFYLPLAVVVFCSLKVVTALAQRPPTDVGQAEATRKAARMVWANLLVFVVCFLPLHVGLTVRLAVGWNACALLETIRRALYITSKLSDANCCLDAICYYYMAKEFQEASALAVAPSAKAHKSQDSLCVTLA

EC50 | Compound
> 40 µM (inactive) | COc1ccc(Cn2c(SCc3cccc(C(F)(F)F)c3)nc3cc(OC)c(OC)cc3c2=N)cc1Cl
> 40 µM (inactive) | COc1cccc(OC)c1-c1nc(C(=O)N[C@@H](CC(C)C)C(=O)O)cn1-c1ccnc2ccccc12
> 40 µM (inactive) | Cc1ccc(C)c(-n2ncc3c(N4CCN(c5ccccc5)CC4)ncnc32)c1
> 40 µM (inactive) | COc1cccc(N2CCN(c3ncnc4c3cnn4-c3ccc(C)cc3C)CC2)c1
> 40 µM (inactive) | COc1cccc(OC)c1-c1cc(C(=O)N[C@@H](CC(C)C)C(=O)O)nn1-c1ccnc2cc(Cl)ccc12
> 40 µM (inactive) | COc1ccc(Cn2c(SCc3cc(C)ccc3C)nc3cc(OC)c(OC)cc3c2=N)cc1Cl
> 40 µM (inactive) | Cc1ccc(-n2ncc3c(N4CCN(c5ccccc5F)CC4)ncnc32)c(C)c1
inactive | CCOc1ccc(-c2nnc3c4cc(OC)c(OC)cc4n(Cc4ccc(F)cc4)cc2-3)cc1
8.86 µM | COc1cc2c3nnc(-c4ccc(C)cc4)c-3cn(Cc3ccc(C)cc3)c2cc1OC
> 40 µM (inactive) | Cc1ccc(-n2ncc3c(N4CCN(c5ccccc5)CC4)ncnc32)c(C)c1
10.5 µM | COc1cc2c3nnc(-c4ccc(Cl)cc4)c-3cn(Cc3ccccc3)c2cc1OC
inactive | COc1cc2c3nnc(-c4ccccc4)c-3cn(Cc3ccccc3)c2cc1OC
6.07 µM | COc1cc2c3nnc(-c4ccc(F)cc4)c-3cn(Cc3cccc(C)c3)c2cc1OC
inactive | CCOc1ccc(-c2nnc3c4cc(OC)c(OC)cc4n(Cc4ccccc4)cc2-3)cc1
9.82 µM | COc1cc2c3nnc(-c4ccc(F)cc4)c-3cn(Cc3ccccc3)c2cc1OC
> 40 µM (inactive) | Cc1cc(Cl)ccc1-n1ncc2c(N3CCN(c4ccccc4)CC3)ncnc21
8.57 µM and 7.58 µM | COc1cc2c3nnc(-c4ccc(F)cc4)c-3cn(Cc3ccc(C)cc3)c2cc1OC
8.32 µM | COc1cc2c3nnc(-c4ccc(Cl)cc4)c-3cn(Cc3ccc(F)cc3)c2cc1OC
> 40 µM (inactive) | COc1cc2c3nnc(-c4ccc(Cl)cc4)c-3cn(Cc3ccc(C)cc3)c2cc1OC
> 40 µM (inactive) | COc1cc2nc(-c3ccccc3)nc(N3CCN(c4ccccc4OC)CC3)c2cc1OC
> 40 µM (inactive) | COc1ccc(Cn2c(SCc3ccccc3C)nc3cc(OC)c(OC)cc3c2=N)cc1Cl

EC50 | Compound
> 40 µM (inactive) | Cc1cccc(C)c1-c1nc(C(=O)N[C@@H](CC(C)C)C(=O)O)cn1-c1ccnc2cc(Cl)ccc12
> 40 µM (inactive) | COc1cccc(OC)c1-c1nc(C(=O)N[C@@H](CC(C)C)C(=O)O)cn1-c1ccnc2cc(Cl)ccc12
> 40 µM (inactive) | COc1ccccc1-c1cc(C(=O)N[C@@H](CC(C)C)C(=O)O)nn1-c1ccnc2cc(Cl)ccc12
6.26 µM | COc1ccc(-c2nnc3c4cc(OC)c(OC)cc4n(Cc4ccc(C)cc4)cc2-3)cc1
> 40 µM (inactive) | CCOc1ccc(-c2nnc3c4cc(OC)c(OC)cc4n(Cc4ccc(C)cc4)cc2-3)cc1
> 40 µM (inactive) | COc1cc2nc(C3CCC3)nc(N3CCN(c4ccccc4C)CC3)c2cc1OC
8.31 µM | COc1cc2c3nnc(-c4ccc(C)cc4)c-3cn(Cc3ccc(F)cc3)c2cc1OC
> 40 µM (inactive) | CN(C)S(=O)(=O)c1ccc(-c2csc(N/N=C/c3ccco3)n2)cc1
> 40 µM (inactive) | COc1ccc(Cn2c(SCc3ccccc3)nc3cc(OC)c(OC)cc3c2=N)cc1Cl
> 40 µM (inactive) | COc1cccc(OC)c1-c1nc(C(=O)N[C@@H](CC(C)C)C(=O)O)cn1-c1cccc2ccccc12
> 40 µM (inactive) | CC(C)C[C@H](NC(=O)c1cn(-c2ccnc3cc(Cl)ccc23)c(-c2c(Cl)cccc2Cl)n1)C(=O)O
> 40 µM (inactive) | Clc1ccccc1-n1ncc2c(N3CCN(c4ccccc4)CC3)ncnc21
> 40 µM (inactive) | COc1cc2nc(C3CCC3)nc(N3CCN(c4ccccc4OC)CC3)c2cc1OC
inactive | COc1cc2c3nnc(-c4ccc(C)c(C)c4)c-3cn(Cc3ccccc3)c2cc1OC
13.6 µM | COc1cc2c3nnc(-c4ccc(F)cc4)c-3cn(Cc3ccc(F)cc3)c2cc1OC
inactive | CCN(CC)S(=O)(=O)c1ccc(-c2csc(N/N=C/c3ccco3)n2)cc1
> 40 µM (inactive) | COc1ccccc1N1CCN(c2ncnc3c2cnn3-c2ccc(C)cc2C)CC1
> 40 µM (inactive) | CN(C)S(=O)(=O)c1ccc(-c2csc(N/N=C/c3cccs3)n2)cc1
> 40 µM (inactive) | Cc1ccc(Cn2cc3c(-c4ccc(F)cc4)nnc-3c3cc4c(cc32)OCO4)cc1
inactive | COc1ccc(Cn2c(SCc3ccc(C)cc3)nc3cc(OC)c(OC)cc3c2=N)cc1Cl
> 40 µM (inactive) | O=S(=O)(c1ccc(-c2csc(N/N=C/c3ccco3)n2)cc1)N1CCCC1
